Earlier results, collected in patent US11213608B2, “Compositions including gelatin nanoparticles and methods of use thereof” (Wake Forest University Health Sciences, priority 2018, dated 2022).

Test system: HepG2 cells

In the case of `Cc1c(C)c2c(c(C)c1O)CCC(C)(COc1ccc(CC3SC(=O)NC3=O)cc1)O2` (stereo not shown) [TRO, troglitazone], the “concentration above which toxic effects are commonly reported” value is given as “above 100 μM”.
